From US11180452B2, “Methods and compositions for selectively inhibiting pathogenic microbes” (priority 2019, dated 2021)
In brackets after ≈: the same amount, converted by molar mass. Several values for one entry are separate records, joined by “and”; a condition that tells them apart may be missing. Identical values can stand only once. Like-named read-outs stand apart in the source and are kept apart here.

Legend:
Bacillus subtilis = Bacillus subtilis MIC / MBC; assay type: cell-based; conditions: for MIC: Bacillus subtilis, Bacillus subtilis (Ehrenberg 1835) Cohn 1872 NRRL: B-571, read-out: MIC; for MBC: Bacillus subtilis NRRL: B-571, minimum bactericidal concentration
Candida glabrata = Candida glabrata MIC / MFC; assay type: cell-based; conditions: Nakaseomyces glabratus, Candida glabrata #584 (Table 2); for MIC: read-out: MIC; for MFC: minimum fungicidal concentration, read-out: MFC
[1] = tested on: Francisella tularensis subsp. Holarctica Strain LVSR NR-597; assay: microbe, parasite or virus in culture; assay type: cell-based
Bacillus thuringiensis = assay type: cell-based; conditions: Bacillus thuringiensis Berliner ATCC: 10792; for MIC: Bacillus thuringiensis, read-out: MIC
[2] = tested on: Burkholderia thailandensis Brett et al ATCC: 700388; assay: microbe, parasite or virus in culture; assay type: cell-based
[3] = tested on: Francisella tularensis strains; assay: microbe, parasite or virus in culture; assay type: cell-based
[4] = Toxicity in mice, body weight over 7 days; assay type: in vivo, Balb/c mice; conditions: for Animal body weight (kg) Day 0 / Animal body weight (kg) Day 1 / Animal body weight (kg) Day 2 / Animal body weight (kg) Day 3 / Animal body weight (kg) Day 4 / Animal body weight (kg) Day 5 / Animal body weight (kg) Day 6 / Animal body weight (kg) Day 7: mice, IP; for Animal body weight (kg) Day 0: Day 0, individual animals; for Animal body weight (kg) Day 1: Day 1, individual animals; for Animal body weight (kg) Day 2: Day 2, individual animals; for Animal body weight (kg) Day 3: Day 3, individual animals; for Animal body weight (kg) Day 4: Day 4, individual animals; for Animal body weight (kg) Day 5: Day 5, individual animals; for Animal body weight (kg) Day 6: Day 6, individual animals; for Animal body weight (kg) Day 7: Day 7, individual animals
From the text: The vehicle is 40% PEG300 solution in 0.9% NaCl. […] Thus, the compounds are useful for in vivo antimicrobial administration.

COc1ccc2[nH]cc(Sc3ccccc3O)c2c1 [Compound 174AQ, 2-((5-methoxy-1H-indol-3-yl)thio)phenol]
MIC (Bacillus subtilis): 32 µg/mL (≈ 118 µM)
MIC (Candida glabrata): 50 µg/mL (≈ 184 µM)
MIC [1]: 16 µg/mL (≈ 59 µM)

Clc1cc(Cl)c(Sc2c[nH]c3ccc(Br)cc23)c(Cl)c1 [Compound 174AG, 5-bromo-3-((2,4,6-trichlorophenyl)thio)-1H-indole]
MBC (Bacillus subtilis): > 50 µg/mL
MIC (Bacillus subtilis): 4 µg/mL (≈ 9.81 µM)
MBC (Bacillus thuringiensis): > 50 µg/mL
MIC (Bacillus thuringiensis): 4 µg/mL (≈ 9.81 µM)
MIC [2]: > 50 µg/mL
MFC (Candida glabrata): > 50 µg/mL
MIC (Candida glabrata): 6.25 µg/mL (≈ 15.3 µM)

COc1ccc2[nH]cc(Sc3ccccc3Br)c2c1 [Compound 174AS, 3-((2-bromophenyl)thio)-5-methoxy-1H-indole]
MIC (Bacillus subtilis): 2 µg/mL (≈ 5.98 µM)
MIC (Candida glabrata): > 50 µg/mL
MIC [1]: 1 µg/mL (≈ 2.99 µM)

Brc1ccc2[nH]cc(Sc3ccccc3)c2c1 [Compound 174AA, 5-bromo-3-(phenylthio)-1H-indole]
MBC (Bacillus subtilis): 16 µg/mL (≈ 52.6 µM)
MIC (Bacillus subtilis): 4 µg/mL (≈ 13.1 µM)
MBC (Bacillus thuringiensis): 16 µg/mL (≈ 52.6 µM)
MIC (Bacillus thuringiensis): 8 µg/mL (≈ 26.3 µM)
MIC [2]: > 50 µg/mL
MFC (Candida glabrata): 6.25 µg/mL (≈ 20.5 µM)
MIC (Candida glabrata): 3.13 µg/mL (≈ 10.3 µM)
MIC [1]: 4 µg/mL (≈ 13.1 µM)

Oc1ccc2[nH]cc(Sc3ccccc3Br)c2c1 [Compound 174AR, 3-((2-bromophenyl)thio)-1H-indol-5-ol]
MIC (Bacillus subtilis): 8 µg/mL (≈ 25 µM)
MIC (Candida glabrata): 50 µg/mL (≈ 156 µM)
MIC [1]: 4 µg/mL (≈ 12.5 µM)

Clc1ccccc1Sc1c[nH]c2ccc(Br)cc12 [Compound 174AJ, 5-bromo-3-((2-chlorophenyl)thio)-1H-indole]
MBC (Bacillus subtilis): 3.13 µg/mL (≈ 9.24 µM)
MIC (Bacillus subtilis): 0.78 µg/mL (≈ 2.3 µM)
MBC (Bacillus thuringiensis): 1.56 µg/mL (≈ 4.61 µM)
MIC (Bacillus thuringiensis): 0.78 µg/mL (≈ 2.3 µM)
MIC [2]: > 50 µg/mL
MFC (Candida glabrata): 25 µg/mL (≈ 73.8 µM)
MIC (Candida glabrata): 6.25 µg/mL (≈ 18.5 µM)

Brc1ccc(Sc2c[nH]c3c(Br)cc(Br)cc23)cc1 [Compound 174AC, 5,7-dibromo-3-((4-bromophenyl)thio)-1H-indole]
MBC (Bacillus subtilis): 16 µg/mL (≈ 34.6 µM)
MIC (Bacillus subtilis): 8 µg/mL (≈ 17.3 µM)
MBC (Bacillus thuringiensis): 50 µg/mL (≈ 108 µM)
MIC (Bacillus thuringiensis): 8 µg/mL (≈ 17.3 µM)
MIC [2]: > 50 µg/mL
MIC (Candida glabrata): 25 µg/mL (≈ 54.1 µM)

Cc1[nH]c2ccc(O)cc2c1Sc1ccccc1N [Compound 174AK, 3-((2-aminophenyl)thio)-2-methyl-1H-indol-5-ol]
MBC (Bacillus subtilis): > 50 µg/mL
MIC (Bacillus subtilis): 50 µg/mL (≈ 185 µM)
MIC (Bacillus thuringiensis): > 50 µg/mL
MIC [2]: > 50 µg/mL
MIC (Candida glabrata): > 50 µg/mL

Fc1ccccc1Sc1c[nH]c2ccc(Br)cc12 [Compound 174AU, 5-bromo-3-((2-fluorophenyl)thio)-1H-indole]
MBC (Bacillus subtilis): 2 µg/mL (≈ 6.21 µM)
MIC (Bacillus subtilis): 1 µg/mL (≈ 3.1 µM)
MBC (Bacillus thuringiensis): 2 µg/mL (≈ 6.21 µM)
MIC (Bacillus thuringiensis): 1 µg/mL (≈ 3.1 µM)
MFC (Candida glabrata): 50 µg/mL (≈ 155 µM)
MIC (Candida glabrata): 3.13 µg/mL (≈ 9.71 µM)
MIC [1]: 0.25 µg/mL (≈ 0.776 µM)
MIC50 [3]: 2 µg/mL (≈ 6.21 µM)
MIC ([3]; read-out: F. tularensis BSL-3 MIC, Strain 100): 8 µg/mL (≈ 24.8 µM)
MIC ([3]; read-out: F. tularensis BSL-3 MIC, strain HN-63): 2 µg/mL (≈ 6.21 µM)
MIC ([3]; read-out: F. tularensis BSL-3 MIC, strain LVS): 2 µg/mL (≈ 6.21 µM)
MIC ([3]; read-out: F. tularensis BSL-3 MIC, strain MA00-2987): 2 µg/mL (≈ 6.21 µM)
MIC ([3]; read-out: F. tularensis BSL-3 MIC, strain MO #1): 1.83 µg/mL (≈ 5.68 µM)
MIC ([3]; read-out: F. tularensis BSL-3 MIC, strain MO #2): 1.67 µg/mL (≈ 5.18 µM)
MIC ([3]; read-out: F. tularensis BSL-3 MIC, strain MO #3): 2 µg/mL (≈ 6.21 µM)
MIC ([3]; read-out: F. tularensis BSL-3 MIC, strain OR-96): 4 µg/mL (≈ 12.4 µM)
MIC ([3]; read-out: F. tularensis BSL-3 MIC, strain SCHU S4): 4 µg/mL (≈ 12.4 µM)
MIC ([3]; read-out: F. tularensis BSL-3 MIC, strain WY-96): 1.5 µg/mL (≈ 4.66 µM)
MIC ([3]; read-out: MAX, highest MIC over the Francisella tularensis strains): 8 µg/mL (≈ 24.8 µM)
MIC ([3]; read-out: MIN, lowest MIC over the Francisella tularensis strains): 1.5 µg/mL (≈ 4.66 µM)
toxicity in mice by body weight ([4]; 6-week-old Balb/c mice, body weight over 7 days, vehicle 40% PEG300 in 0.9% NaCl): did not have significant toxicity
Animal body weight (kg) Day 0 ([4]; 0.1 mg/kg, 0.1 mg/kg): 0.026 kg and 0.023 kg and 0.024 kg
Animal body weight (kg) Day 1 ([4]; 0.1 mg/kg, 0.1 mg/kg): 0.024 kg and 0.022 kg and 0.023 kg
Animal body weight (kg) Day 2 ([4]; 0.1 mg/kg, 0.1 mg/kg): 0.025 kg and 0.022 kg and 0.023 kg
Animal body weight (kg) Day 3 ([4]; 0.1 mg/kg, 0.1 mg/kg): 0.025 kg and 0.022 kg and 0.023 kg
Animal body weight (kg) Day 4 ([4]; 0.1 mg/kg, 0.1 mg/kg): 0.025 kg and 0.022 kg and 0.023 kg
Animal body weight (kg) Day 5 ([4]; 0.1 mg/kg, 0.1 mg/kg): 0.025 kg and 0.023 kg and 0.024 kg
Animal body weight (kg) Day 6 ([4]; 0.1 mg/kg, 0.1 mg/kg): 0.025 kg and 0.022 kg and 0.023 kg
Animal body weight (kg) Day 7 ([4]; 0.1 mg/kg, 0.1 mg/kg): 0.024 kg and 0.022 kg and 0.023 kg
Animal body weight (kg) Day 0 ([4]; 1 mg/kg, 1 mg/kg): 0.026 kg and 0.022 kg and 0.025 kg
Animal body weight (kg) Day 1 ([4]; 1 mg/kg, 1 mg/kg): 0.025 kg (2×) and 0.022 kg
Animal body weight (kg) Day 2 ([4]; 1 mg/kg, 1 mg/kg): 0.026 kg and 0.022 kg and 0.025 kg
Animal body weight (kg) Day 3 ([4]; 1 mg/kg, 1 mg/kg): 0.026 kg and 0.022 kg and 0.025 kg
Animal body weight (kg) Day 4 ([4]; 1 mg/kg, 1 mg/kg): 0.026 kg and 0.023 kg and 0.025 kg
Animal body weight (kg) Day 5 ([4]; 1 mg/kg, 1 mg/kg): 0.026 kg and 0.023 kg and 0.025 kg
Animal body weight (kg) Day 6 ([4]; 1 mg/kg, 1 mg/kg): 0.025 kg (2×) and 0.023 kg
Animal body weight (kg) Day 7 ([4]; 1 mg/kg, 1 mg/kg): 0.026 kg and 0.024 kg and 0.025 kg
Animal body weight (kg) Day 0 ([4]; 10 mg/kg, 10 mg/kg): 0.024 kg (2×) and 0.025 kg
Animal body weight (kg) Day 1 ([4]; 10 mg/kg, 10 mg/kg): 0.023 kg (2×) and 0.024 kg
Animal body weight (kg) Day 2 ([4]; 10 mg/kg, 10 mg/kg): 0.023 kg (2×) and 0.025 kg
Animal body weight (kg) Day 3 ([4]; 10 mg/kg, 10 mg/kg): 0.024 kg and 0.023 kg and 0.025 kg
Animal body weight (kg) Day 4 ([4]; 10 mg/kg, 10 mg/kg): 0.023 kg (2×) and 0.025 kg
Animal body weight (kg) Day 5 ([4]; 10 mg/kg, 10 mg/kg): 0.023 kg (2×) and 0.026 kg
Animal body weight (kg) Day 6 ([4]; 10 mg/kg, 10 mg/kg): 0.022 kg and 0.023 kg and 0.026 kg
Animal body weight (kg) Day 7 ([4]; 10 mg/kg, 10 mg/kg): 0.022 kg and 0.023 kg and 0.026 kg

Oc1ccc2[nH]cc(Sc3ccccc3O)c2c1 [Compound 174AP, 3-((2-hydroxyphenyl)thio)-1H-indol-5-ol]
MIC (Bacillus subtilis): 50 µg/mL (≈ 194 µM)
MIC (Candida glabrata): > 50 µg/mL
MIC [1]: 50 µg/mL (≈ 194 µM)
